Test results taken from US7632918B2, “Semi-synthetic glycopeptides with antibiotic activity” (Novartis Vaccines and Diagnostics, Inc., priority 2005, dated 2009).
≈ marks a conversion by molar mass, not a printed value.

What was measured:
Experiment in all cases: MIC, broth microdilution in Meuller-Hinton broth (NCCLS)
[1] = test system: 560 E. faecalis (GRE); format: cell-based, Enterococcus faecalis; details: glycopeptide-resistant clinical isolate
Procedure: (§1) Antibacterial activity in vitro was investigated by broth microdilution method in Meuller-Hinton broth as recommended by NCCLS. All strains tested were clinical isolates either sensitive or resistant to natural glycopeptides. Results are reported in the tables as MIC (minimal inhibitory concentration) in μg/ml.
(§2) The glycopeptides were tested against a variety of strains, indicated below, including Staphylococus epidermidis, Staphylococus haemolyticus, glycopeptides-intermediate Staphylococus aureus (GISA), glocopeptide-sensitive Enterococcus faecalis (GSE), and glocopeptide-resistant Enterococcus faecalis (GRE). Results are shown in the table as minimum inhibitory concentration (MIC) in units of μg/ml: […]

[2] = test system: 559 E. faecalis (GSE); format: cell-based, Enterococcus faecalis; details: glycopeptide-sensitive clinical isolate
Procedure: as §1, §2

[3] = test system: 568 E. faecium (GSE); format: cell-based; details: glycopeptide-sensitive clinical isolate
Procedure: as §1, §2

[4] = test system: 569 E. faecium (GRE); format: cell-based; details: glycopeptide-resistant clinical isolate
Procedure: as §1, §2

[5] = test system: 533 S. epidermidis; format: cell-based, Staphylococus epidermidis; details: clinical isolate
Procedure: as §1, §2

[6] = test system: 3797 S. aureus (GISA); format: cell-based, Staphylococus aureus; details: glycopeptides-intermediate clinical isolate
Procedure: as §1, §2

[7] = test system: 3798 S. aureus (GISA); format: cell-based, Staphylococus aureus; details: glycopeptides-intermediate clinical isolate
Procedure: as §1, §2

[8] = test system: 602 S. haemolyticus; format: cell-based, Staphylococus haemolyticus; details: clinical isolate
Procedure: as §1, §2

Compound	MIC 560 E. faecalis (GRE) [1] [µg/mL]	MIC 559 E. faecalis (GSE) [2] [µg/mL]	MIC 568 E. faecium (GSE) [3] [µg/mL]	MIC 569 E. faecium (GRE) [4] [µg/mL]	MIC 533 S. epidermidis [5] [µg/mL]	MIC 3797 S. aureus (GISA) [6] [µg/mL]	MIC 3798 S. aureus (GISA) [7] [µg/mL]	MIC 602 S. haemolyticus [8] [µg/mL]
CNC(CC(C)C)C(=O)NC1C(=O)NC(CC(N)=O)C(=O)NC2C(=O)NC3C(=O)NC(C(=O)NC(C(=O)NCc4ccc(F)cc4)c4cc(O)cc(O)c4-c4cc3ccc4O)C(O)c3ccc(c(Cl)c3)Oc3cc2cc(c3OC2OC(CO)C(O)C(O)C2OC2CC(C)(N)C(O)C(C)O2)Oc2ccc(cc2Cl)C1O (stereo not drawn) [Compound 288]	>64	0.13 (≈ 0.0835 µM)	0.13 (≈ 0.0835 µM)	>64	2 (≈ 1.29 µM)	4 (≈ 2.57 µM)	4 (≈ 2.57 µM)	1 (≈ 0.643 µM)
CNC(CC(C)C)C(=O)NC1C(=O)NC(CC(N)=O)C(=O)NC2C(=O)NC3C(=O)NC(C(=O)NC(C(=O)O)c4cc(O)cc(O)c4-c4cc3ccc4O)C(OC3CC(C)(N)C(O)C(C)O3)c3ccc(cc3)Oc3cc2cc(c3OC2OC(CO)C(O)C(O)C2OC2CC(C)(NC(=O)CNCc3ccc(OCc4ccccc4)cc3)C(O)C(C)O2)Oc2ccc(cc2Cl)C1O (stereo not drawn) [Compound 223]	64 (≈ 35.3 µM)	2 (≈ 1.1 µM)	2 (≈ 1.1 µM)	16 (≈ 8.83 µM)	2 (≈ 1.1 µM)	8 (≈ 4.42 µM)	8 (≈ 4.42 µM)	4 (≈ 2.21 µM)
CCCCc1ccc(CNCC(=O)NC2(C)CC(OC3C(Oc4c5cc6cc4Oc4ccc(cc4Cl)C(O)C(NC(=O)C(CC(C)C)NC)C(=O)NC(CC(N)=O)C(=O)NC6C(=O)NC4C(=O)NC(C(=O)NC(C(=O)NC)c6cc(O)cc(O)c6-c6cc4ccc6O)C(OC4CC(C)(N)C(O)C(C)O4)c4ccc(cc4)O5)OC(CO)C(O)C3O)OC(C)C2O)cc1 (stereo not drawn) [Compound 77]	8 (≈ 4.51 µM)	2 (≈ 1.13 µM)	2 (≈ 1.13 µM)	8 (≈ 4.51 µM)	1 (≈ 0.564 µM)	2 (≈ 1.13 µM)	2 (≈ 1.13 µM)	2 (≈ 1.13 µM)
CCCCc1ccc(CNCC(=O)NC2(C)CC(OC3C(Oc4c5cc6cc4Oc4ccc(cc4Cl)C(O)C(NC(=O)C(CC(C)C)NC)C(=O)NC(CC(N)=O)C(=O)NC6C(=O)NC4C(=O)NC(C(=O)NC(C(=O)NC(C)C67CC8CC(CC(C8)C6)C7)c6cc(O)cc(O)c6-c6cc4ccc6O)C(OC4CC(C)(N)C(O)C(C)O4)c4ccc(cc4)O5)OC(CO)C(O)C3O)OC(C)C2O)cc1 (stereo not drawn) [Compound 264]	8 (≈ 4.16 µM)	4 (≈ 2.08 µM)	4 (≈ 2.08 µM)	8 (≈ 4.16 µM)	4 (≈ 2.08 µM)	8 (≈ 4.16 µM)	16 (≈ 8.32 µM)	8 (≈ 4.16 µM)
CNC(CC(C)C)C(=O)NC1C(=O)NC(CC(N)=O)C(=O)NC2C(=O)NC3C(=O)NC(C(=O)NC(C(=O)O)c4cc(O)cc(O)c4-c4cc3ccc4O)C(O)c3ccc(c(Cl)c3)Oc3cc2cc(c3OC2OC(CO)C(O)C(O)C2OC2CC(C)(NC(=O)CNCc3ccc(-c4ccc(Cl)cc4)cc3)C(O)C(C)O2)Oc2ccc(cc2Cl)C1O (stereo not drawn) [Compound 210]	16 (≈ 9.37 µM)	0.5 (≈ 0.293 µM)	0.25 (≈ 0.146 µM)	16 (≈ 9.37 µM)	0.13 (≈ 0.0762 µM)	1 (≈ 0.586 µM)	1 (≈ 0.586 µM)	0.25 (≈ 0.146 µM)
CCCCCCCCCC(=O)NCC(=O)NC1(C)CC(OC2C(Oc3c4cc5cc3Oc3ccc(cc3Cl)C(O)C(NC(=O)C(CC(C)C)NC)C(=O)NC(CC(N)=O)C(=O)NC5C(=O)NC3C(=O)NC(C(=O)NC(C(=O)O)c5cc(O)cc(O)c5-c5cc3ccc5O)C(OC3CC(C)(N)C(O)C(C)O3)c3ccc(cc3)O4)OC(CO)C(O)C2O)OC(C)C1O (stereo not drawn) [Compound 186]	>64	2 (≈ 1.13 µM)	1 (≈ 0.565 µM)	>64	2 (≈ 1.13 µM)	16 (≈ 9.04 µM)	16 (≈ 9.04 µM)	2 (≈ 1.13 µM)
N′-stilbenylHNCH2CO eremomycin [Compound 192]	8	1	0.5	4	0.5	8	8	0.5
CNC(CC(C)C)C(=O)NC1C(=O)NC(CC(N)=O)C(=O)NC2C(=O)NC3C(=O)NC(C(=O)NC(C(=O)O)c4cc(O)cc(O)c4-c4cc3ccc4O)C(OC3CC(C)(N)C(O)C(C)O3)c3ccc(cc3)Oc3cc2cc(c3OC2OC(CO)C(O)C(O)C2OC2CC(C)(NC(=O)C(N)CCCCN)C(O)C(C)O2)Oc2ccc(cc2Cl)C1O (stereo not drawn) [Compound 203]	>64	0.25 (≈ 0.148 µM)	0.25 (≈ 0.148 µM)	16 (≈ 9.49 µM)	0.13 (≈ 0.0771 µM)	4 (≈ 2.37 µM)	8 (≈ 4.74 µM)	0.13 (≈ 0.0771 µM)
CNC(CC(C)C)C(=O)NC1C(=O)NC(CC(N)=O)C(=O)NC2C(=O)NC3C(=O)NC(C(=O)NC(C(=O)O)c4cc(O)cc(O)c4-c4cc3ccc4O)C(OC3CC(C)(N)C(O)C(C)O3)c3ccc(cc3)Oc3cc2cc(c3OC2OC(CO)C(O)C(O)C2OC2CC(C)(NC(=O)[C@H](N)Cc3ccccc3)C(O)C(C)O2)Oc2ccc(cc2Cl)C1O (stereo partly drawn) [Compound 229]	>64	0.5 (≈ 0.293 µM)	0.25 (≈ 0.147 µM)	>64	1 (≈ 0.586 µM)	>32	>32	1 (≈ 0.586 µM)
CCCCc1ccc(CNCC(=O)NC2(C)CC(OC3C(Oc4c5cc6cc4Oc4ccc(cc4Cl)C(O)C(NC(=O)C(CC(C)C)NC)C(=O)NC(CC(N)=O)C(=O)NC6C(=O)NC4C(=O)NC(C(=O)NC(C(=O)O)c6cc(O)cc(O)c6-c6cc4ccc6O)C(OC4CC(C)(N)C(O)C(C)O4)c4ccc(cc4)O5)OC(CO)C(O)C3O)OC(C)C2O)cc1 (stereo not drawn) [Compound 57, N′-p-BuBnHNCH2CO eremomycin]	4 (≈ 2.27 µM)	0.5 (≈ 0.284 µM)	0.5 (≈ 0.284 µM)	4 (≈ 2.27 µM)	0.5 (≈ 0.284 µM)	4 (≈ 2.27 µM)	4 (≈ 2.27 µM)	2 (≈ 1.14 µM)
CCCCN(CCCC)c1ccc(CNCC(=O)NC2(C)CC(OC3C(Oc4c5cc6cc4Oc4ccc(cc4Cl)C(O)C(NC(=O)C(CC(C)C)NC)C(=O)NC(CC(N)=O)C(=O)NC6C(=O)NC4C(=O)NC(C(=O)NC(C(=O)O)c6cc(O)cc(O)c6-c6cc4ccc6O)C(OC4CC(C)(N)C(O)C(C)O4)c4ccc(cc4)O5)OC(CO)C(O)C3O)OC(C)C2O)cc1 (stereo not drawn) [Compound 187]	32 (≈ 17.5 µM)	2 (≈ 1.09 µM)	1 (≈ 0.546 µM)	32 (≈ 17.5 µM)	1 (≈ 0.546 µM)	8 (≈ 4.37 µM)	8 (≈ 4.37 µM)	1 (≈ 0.546 µM)
CNC(CC(C)C)C(=O)NC1C(=O)NC(CC(N)=O)C(=O)NC2C(=O)NC3C(=O)NC(C(=O)NC(C(=O)O)c4cc(O)cc(O)c4-c4cc3ccc4O)C(OC3CC(C)(N)C(O)C(C)O3)c3ccc(cc3)Oc3cc2cc(c3OC2OC(CO)C(O)C(O)C2OC2CC(C)(NC(=O)CNCc3ccc4c(c3)Cc3ccccc3-4)C(O)C(C)O2)Oc2ccc(cc2Cl)C1O (stereo not drawn) [Compound 292]	32 (≈ 17.8 µM)	2 (≈ 1.12 µM)	2 (≈ 1.12 µM)	32 (≈ 17.8 µM)	4 (≈ 2.23 µM)	8 (≈ 4.46 µM)	8 (≈ 4.46 µM)	4 (≈ 2.23 µM)
